# Measurements published in ChEMBL document CHEMBL1130487, “Development of a positron emission tomography radiopharmaceutical for imaging thymidine kinase gene expression: Synthesis and in vitro evaluation of 9-{3-[18F] Fluoro-1-hydroxy-2-propoxymethyl guanine” (1997).
# What was measured:
# Rattus norvegicus [1] = organism: Rattus norvegicus; assay: Anti proliferation activity determined; Weak effect; format: functional
# Rattus norvegicus [2] = organism: Rattus norvegicus; assay: Inhibition of cell growth by compound at a concentration of 10 uM in 9Ltk+ cells; […]; format: functional, cell-based
# [3] = Inhibition of cell growth by compound at a concentration of 10 uM in 9Ltk+ cells; format: functional; settings: Rattus norvegicus
# Rattus norvegicus [4] = organism: Rattus norvegicus; assay: Inhibition of cell growth by compound at a concentration of 100 uM in 9Ltk+ cells; Completely stopped the process; format: functional, cell-based
structure (smiles),measurement,setting,value
Nc1nc2c(ncn2COC(CO)CO)c(=O)[nH]1,Activity,Rattus norvegicus [1],Weak effect
same,inhibition,Rattus norvegicus [2],Completely stopped the process
Nc1nc(O)c2ncn(COC(CO)CF)c2n1 (centres undefined),inhibition at 10 µM,[3],50%
Nc1nc2c(ncn2COCCO)c(=O)[nH]1,inhibition,Rattus norvegicus [4],Completely stopped the process
